In US10906873B2, “Substituted cyclic amides as herbicides” (FMC Corporation, priority 2015, dated 2021):

Experiments:
Format in all cases: in vivo
[1] = system: velvetleaf (Abutilon theophrasti); test: Test A preemergence, velvetleaf; settings: 1000 g ai/ha, 0 to 100 scale
Excerpt: (§1) Seeds of plant species selected from barnyardgrass (Echinochloa crus-galli), crabgrass (large crabgrass, Digitaria sanguinalis), kochia (Kochia scoparia), ragweed (common ragweed, Ambrosia elatior), morningglory (Ipomoea spp.), velvetleaf (Abutilon theophrasti), ryegrass, It. (Italian ryegrass, Lolium multiflorum), foxtail, giant (giant foxtail, Setaria faberii), wheat (Triticum aestivum), corn (Zea mays), and pigweed (Amaranthus retroflexus), were planted into a blend of loam soil and sand and treated preemergence with a directed soil spray using test chemicals formulated in a non-phytotoxic solvent mixture which included a surfactant. At the same time, plants selected from these crop and weed species and also blackgrass (Alopecurus myosuroides), and galium (catchweed bedstraw, Galium aparine), were planted in pots containing the same blend of loam soil and sand and treated with postemergence applications of test chemicals formulated in the same manner. Plants ranged in height from 2 to 10 cm and were in the one- to two-leaf stage for the postemergence treatment. Treated plants and untreated controls were maintained in a greenhouse for approximately 10 d, after which time all treated plants were compared to untreated controls and visually evaluated for injury. Plant response ratings, summarized in Table A, are based on a 0 to 100 scale where 0 is no effect and 100 is complete control. A dash (-) response means no test result.

[2] = system: barnyardgrass (Echinochloa crus-galli); test: Test A preemergence, barnyardgrass; settings: 0 to 100 scale
Summary of the method: (§2)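 Scores run from 0, no effect, to 100, complete control, assigned visually after roughly 10 d in the greenhouse. Preemergence treatment is a directed spray onto sown loam–sand soil; postemergence treatment targets plants 2 to 10 cm tall.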

[3] = system: crabgrass (large crabgrass, Digitaria sanguinalis); test: Test A preemergence, crabgrass; settings: 1000 g ai/ha, 0 to 100 scale
Excerpt: as §1

[4] = system: pigweed (Amaranthus retroflexus); test: Test A preemergence, pigweed; settings: 0 to 100 scale
Summary of the method: as §2

[5] = system: morningglory (Ipomoea spp.); test: Test A preemergence, morningglory; settings: 1000 g ai/ha, 0 to 100 scale
Excerpt: as §1

corn (Zea mays) [6] = test: Test A preemergence, corn; settings: 1000 g ai/ha, 0 to 100 scale
Excerpt: as §1

[7] = system: crabgrass (large crabgrass, Digitaria sanguinalis); test: Test A postemergence, crabgrass; settings: 1000 g ai/ha, 0 to 100 scale
Excerpt: as §1

[8] = system: velvetleaf (Abutilon theophrasti); test: Test A postemergence, velvetleaf; settings: 1000 g ai/ha, 0 to 100 scale
Excerpt: as §1

[9] = system: foxtail, giant (giant foxtail, Setaria faberii); test: Test A preemergence, foxtail, giant; settings: 0 to 100 scale
Summary of the method: as §2

[10] = system: wheat (Triticum aestivum); test: Test A postemergence, wheat; settings: 0 to 100 scale
Summary of the method: as §2

[11] = system: morningglory (Ipomoea spp.); test: Test A postemergence, morningglory; settings: 1000 g ai/ha, 0 to 100 scale
Excerpt: as §1

[12] = system: wheat (Triticum aestivum); test: Test A preemergence, wheat; settings: 1000 g ai/ha, 0 to 100 scale
Excerpt: as §1

[13] = system: pigweed (Amaranthus retroflexus); test: Test A postemergence, pigweed; settings: 0 to 100 scale
Summary of the method: as §2

corn (Zea mays) [14] = test: Test A postemergence, corn; settings: 0 to 100 scale
Summary of the method: as §2

[15] = system: foxtail, giant (giant foxtail, Setaria faberii); test: Test A postemergence, foxtail, giant; settings: 0 to 100 scale
Summary of the method: as §2

[16] = system: barnyardgrass (Echinochloa crus-galli); test: Test A postemergence, barnyardgrass
Summary of the method: as §2

rice (Oryza sativa) = test: Test B flooded paddy test, rice; settings: Flood, scale of 0 to 100 where 0 is no effect and 100 is complete control, 13 to 15 d
Summary of the method: (§3)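 Plants at the 2-leaf stage were flooded to 3 cm above soil, and test compounds were applied directly into the paddy water, which was held at that depth throughout. After 13 to 15 d in a greenhouse, injury was rated visually against untreated controls on a 0–100 scale (0 no effect, 100 complete control).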

[17] = system: galium (catchweed bedstraw, Galium aparine); test: Test A postemergence, galium; settings: 0 to 100 scale
Summary of the method: as §2

[18] = system: barnyardgrass (Echinochloa crus-galli); test: Test B flooded paddy test, barnyardgrass; settings: Flood, scale of 0 to 100 where 0 is no effect and 100 is complete control, 13 to 15 d
Summary of the method: as §3

[19] = system: ryegrass, It. (Italian ryegrass, Lolium multiflorum); test: Test A preemergence, ryegrass, It.; settings: 0 to 100 scale
Summary of the method: as §2

kochia (Kochia scoparia) [20] = test: Test A postemergence, kochia; settings: 0 to 100 scale
Summary of the method: as §2

[21] = system: sedge, umbrella (small-flower umbrella sedge, Cyperus difformis); test: Test B flooded paddy test, sedge, umbrella; settings: Flood, scale of 0 to 100 where 0 is no effect and 100 is complete control, 13 to 15 d
Summary of the method: as §3

[22] = system: ragweed (common ragweed, Ambrosia elatior); test: Test A preemergence, ragweed; settings: 0 to 100 scale
Summary of the method: as §2

[23] = system: blackgrass (Alopecurus myosuroides); test: Test A postemergence, blackgrass; settings: 0 to 100 scale
Summary of the method: as §2

[24] = system: ryegrass, It. (Italian ryegrass, Lolium multiflorum); test: Test A postemergence, ryegrass, It.; settings: 0 to 100 scale
Summary of the method: as §2

[25] = system: ragweed (common ragweed, Ambrosia elatior); test: Test A postemergence, ragweed; settings: 0 to 100 scale
Summary of the method: as §2

[26] = system: ducksalad (Heteranthera limosa); test: Test B flooded paddy test, ducksalad; settings: Flood, scale of 0 to 100 where 0 is no effect and 100 is complete control, 13 to 15 d
Summary of the method: as §3

kochia (Kochia scoparia) [27] = test: Test A preemergence, kochia; settings: 0 to 100 scale
Summary of the method: as §2

[28] = 1000 g ai/ha, 0 to 100 scale (0 no effect, 100 complete control)

## O=C1NCC(Cc2ccccc2)C1C(=O)Nc1cccc(F)c1F (centres unmarked) [Compound 4]
[1]
  Plant response rating, Velvetleaf: 0
[2]; 1000 g ai/ha
  Plant response rating, Barnyardgrass: 0
[3]
  Plant response rating, Crabgrass: 60
[4]; 1000 g ai/ha
  Plant response rating, Pigweed: 0
[5]
  Plant response rating, Morningglory: 0
Corn (Zea mays) [6]
  Plant response rating, Corn: 0
[7]
  Plant response rating, Crabgrass: 20
[8]
  Plant response rating, Velvetleaf: 0
[9]; 1000 g ai/ha
  Plant response rating, Foxtail, Giant: 0
[10]; 1000 g ai/ha
  Plant response rating, Wheat: 0
[11]
  Plant response rating, Morningglory: 0
[12]
  Plant response rating, Wheat: 0
[13]; 1000 g ai/ha
  Plant response rating, Pigweed: 0
Corn (Zea mays) [14]; 1000 g ai/ha
  Plant response rating, Corn: 0
[15]; 1000 g ai/ha
  Plant response rating, Foxtail, Giant: 0
[16]; [28]
  Plant response rating, Barnyardgrass: 0

## O=C1NCC(C#Cc2ccc(F)cc2)C1C(=O)Nc1ccccc1F (centres unmarked) [Compound 19]
Rice (Oryza sativa); 250 g ai/ha
  Plant response rating, Rice: 0
[17]; 125 g ai/ha
  Plant response rating, Galium: 0
[17]; 500 g ai/ha
  Plant response rating, Galium: 0
[2]; 125 g ai/ha
  Plant response rating, Barnyardgrass: 0
[2]; 500 g ai/ha
  Plant response rating, Barnyardgrass: 50
[18]; 250 g ai/ha
  Plant response rating, Barnyardgrass: 0
[19]; 125 g ai/ha
  Plant response rating, Ryegrass, It.: 0
[19]; 500 g ai/ha
  Plant response rating, Ryegrass, It.: 0
Kochia (Kochia scoparia) [20]; 125 g ai/ha
  Plant response rating, Kochia: 0
Kochia (Kochia scoparia) [20]; 500 g ai/ha
  Plant response rating, Kochia: 0
[4]; 125 g ai/ha
  Plant response rating, Pigweed: 0
[4]; 500 g ai/ha
  Plant response rating, Pigweed: 0
[21]; 250 g ai/ha
  Plant response rating, Sedge, Umbrella: 0
[22]; 125 g ai/ha
  Plant response rating, Ragweed: 0
[22]; 500 g ai/ha
  Plant response rating, Ragweed: 0
[23]; 125 g ai/ha
  Plant response rating, Blackgrass: 0
[23]; 500 g ai/ha
  Plant response rating, Blackgrass: 0
[24]; 125 g ai/ha
  Plant response rating, Ryegrass, It.: 0
[24]; 500 g ai/ha
  Plant response rating, Ryegrass, It.: 0
[25]; 125 g ai/ha
  Plant response rating, Ragweed: 0
[25]; 500 g ai/ha
  Plant response rating, Ragweed: 0
[9]; 125 g ai/ha
  Plant response rating, Foxtail, Giant: 0
[9]; 500 g ai/ha
  Plant response rating, Foxtail, Giant: 20
[10]; 125 g ai/ha
  Plant response rating, Wheat: 0
[10]; 500 g ai/ha
  Plant response rating, Wheat: 0
[13]; 125 g ai/ha
  Plant response rating, Pigweed: 0
[13]; 500 g ai/ha
  Plant response rating, Pigweed: 0
[26]; 250 g ai/ha
  Plant response rating, Ducksalad: 0
Corn (Zea mays) [14]; 125 g ai/ha
  Plant response rating, Corn: 0
Corn (Zea mays) [14]; 500 g ai/ha
  Plant response rating, Corn: 0
[15]; 125 g ai/ha
  Plant response rating, Foxtail, Giant: 0
[15]; 500 g ai/ha
  Plant response rating, Foxtail, Giant: 20
[16]; 125 g ai/ha, 0 to 100 scale
  Plant response rating, Barnyardgrass: 0
[16]; 500 g ai/ha, 0 to 100 scale
  Plant response rating, Barnyardgrass: 40
Kochia (Kochia scoparia) [27]; 125 g ai/ha
  Plant response rating, Kochia: 0
Kochia (Kochia scoparia) [27]; 500 g ai/ha
  Plant response rating, Kochia: 0

## O=C1NCC(Cc2cccc(C(F)(F)F)c2)C1C(=O)Nc1cccc(F)c1F (centres unmarked) [Compound 11]
Rice (Oryza sativa); 500 g ai/ha
  Plant response rating, Rice: 0
[17]; 125 g ai/ha
  Plant response rating, Galium: 0
[17]; 500 g ai/ha
  Plant response rating, Galium: 0
[2]; 125 g ai/ha
  Plant response rating, Barnyardgrass: 0
[2]; 500 g ai/ha
  Plant response rating, Barnyardgrass: 0
[18]; 500 g ai/ha
  Plant response rating, Barnyardgrass: 0
[19]; 125 g ai/ha
  Plant response rating, Ryegrass, It.: 0
[19]; 500 g ai/ha
  Plant response rating, Ryegrass, It.: 0
Kochia (Kochia scoparia) [20]; 125 g ai/ha
  Plant response rating, Kochia: 0
Kochia (Kochia scoparia) [20]; 500 g ai/ha
  Plant response rating, Kochia: 0
[4]; 125 g ai/ha
  Plant response rating, Pigweed: 0
[4]; 500 g ai/ha
  Plant response rating, Pigweed: 0
[21]; 500 g ai/ha
  Plant response rating, Sedge, Umbrella: 0
[22]; 125 g ai/ha
  Plant response rating, Ragweed: 0
[22]; 500 g ai/ha
  Plant response rating, Ragweed: 0
[23]; 125 g ai/ha
  Plant response rating, Blackgrass: 0
[23]; 500 g ai/ha
  Plant response rating, Blackgrass: 0
[24]; 125 g ai/ha
  Plant response rating, Ryegrass, It.: 0
[24]; 500 g ai/ha
  Plant response rating, Ryegrass, It.: 0
[25]; 125 g ai/ha
  Plant response rating, Ragweed: 0
[25]; 500 g ai/ha
  Plant response rating, Ragweed: 0
[9]; 125 g ai/ha
  Plant response rating, Foxtail, Giant: 0
[9]; 500 g ai/ha
  Plant response rating, Foxtail, Giant: 0
[10]; 125 g ai/ha
  Plant response rating, Wheat: 0
[10]; 500 g ai/ha
  Plant response rating, Wheat: 0
[13]; 125 g ai/ha
  Plant response rating, Pigweed: 0
[13]; 500 g ai/ha
  Plant response rating, Pigweed: 0
[26]; 500 g ai/ha
  Plant response rating, Ducksalad: 0
Corn (Zea mays) [14]; 125 g ai/ha
  Plant response rating, Corn: 0
Corn (Zea mays) [14]; 500 g ai/ha
  Plant response rating, Corn: 0
[15]; 125 g ai/ha
  Plant response rating, Foxtail, Giant: 0
[15]; 500 g ai/ha
  Plant response rating, Foxtail, Giant: 0
[16]; 125 g ai/ha, 0 to 100 scale
  Plant response rating, Barnyardgrass: 0
[16]; 500 g ai/ha, 0 to 100 scale
  Plant response rating, Barnyardgrass: 0
Kochia (Kochia scoparia) [27]; 125 g ai/ha
  Plant response rating, Kochia: 0
Kochia (Kochia scoparia) [27]; 500 g ai/ha
  Plant response rating, Kochia: 0

## O=C1NCC(Cc2ccccc2)C1C(=O)Nc1ccccc1F (centres unmarked) [Compound 3]
[1]
  Plant response rating, Velvetleaf: 0
[2]; 1000 g ai/ha
  Plant response rating, Barnyardgrass: 0
[3]
  Plant response rating, Crabgrass: 0
[4]; 1000 g ai/ha
  Plant response rating, Pigweed: 0
[5]
  Plant response rating, Morningglory: 0
Corn (Zea mays) [6]
  Plant response rating, Corn: 0
[7]
  Plant response rating, Crabgrass: 0
[8]
  Plant response rating, Velvetleaf: 0
[9]; 1000 g ai/ha
  Plant response rating, Foxtail, Giant: 0
[10]; 1000 g ai/ha
  Plant response rating, Wheat: 0
[11]
  Plant response rating, Morningglory: 0
[12]
  Plant response rating, Wheat: 0
[13]; 1000 g ai/ha
  Plant response rating, Pigweed: 0
Corn (Zea mays) [14]; 1000 g ai/ha
  Plant response rating, Corn: 0
[15]; 1000 g ai/ha
  Plant response rating, Foxtail, Giant: 0
[16]; [28]
  Plant response rating, Barnyardgrass: 0
